Assay results as given in the NIST ThermoML archive (doi:10.1021/je060474z).

Experiment: cn = amount concentration of the nth substance listed, in mol/dm3
Conditions: 101.3 kPa, Liquid, Taylor dispersion method

OC[C@H]1O[C@@H]2O[C@H]3[C@H](O)[C@@H](O)[C@@H](O[C@H]4[C@H](O)[C@@H](O)[C@@H](O[C@H]5[C@H](O)[C@@H](O)[C@@H](O[C@H]6[C@H](O)[C@@H](O)[C@@H](O[C@H]7[C@H](O)[C@@H](O)[C@@H](O[C@H]1[C@H](O)[C@H]2O)O[C@@H]7CO)O[C@@H]6CO)O[C@@H]5CO)O[C@@H]4CO)O[C@@H]3CO [α-cyclodextrin] + O
binary diffusion coefficient [m2/s]
Conditions	c1 = 0.002	c1 = 0.004	c1 = 0.006	c1 = 0.008	c1 = 0.01
298.15 K	3.52e-10	3.5e-10	3.49e-10	3.47e-10	3.46e-10
303.15 K	4.07e-10	4.04e-10	4.03e-10	4.01e-10	3.98e-10
308.15 K	4.38e-10	4.36e-10	4.35e-10	4.34e-10	4.31e-10
312.15 K	5.02e-10	4.98e-10	4.88e-10	4.78e-10	4.72e-10
